Reference: patent US20010006697A1, “Composition and method for producing low cholesterol eggs” (priority 1997, published 2001)
Values joined by “and” are separate entries in the source; they are usually repeats but may differ in a detail not shown here. Equal entries are not always repeated. Where two headings read alike, the source gives them in different places. Marks after values point to notes of the source that are not given here.

Tests used:
laying hens [1] = assay: Liver cholesterol content; conditions: day 35
plasma VLDL particles [2] = conditions: day 35
laying hens [3] = conditions: 0.03% of diet; day 35, fasted 15 hours
plasma VLDL particles [4] = conditions: day 35; remark: listed apart in the source
laying hens [5] = assay: Yolk cholesterol contents of eggs from statin-treated laying hens; format: in vivo, White Leghorn hens
Protocol: Agric. […] Hens were treated as described in Example 1. […] The eggs were hard-cooked, and the yolks were separated, weighed, and crumbled. […] Agric. […] Egg homogenate filtrates were analyzed for cholesterol as described in Rudel, L. L. and Morris, M. D., J. Lipid Res. 14:364-366 (1973).

laying hens [6] = assay: Egg production, egg weights and yolk weights of statin-treated laying hens; format: in vivo, White Leghorn hens
Protocol: Hens were treated as described in Example 1. Egg yolk was weighed as outlined in Example 2.

[7] = 0.06% of diet, week 5 (maximal reduction for simvastatin, lovastatin)
[8] = 0.03% of diet, Overall (weeks 1-5)
[9] = 0.06% of diet, Overall (weeks 1-5)

CCC(C)(C)C(=O)O[C@H]1C[C@@H](C)C=C2C=C[C@H](C)[C@H](CC[C@@H]3C[C@@H](O)CC(=O)O3)[C@H]21 [Simvastatin]
Liver Cholesterol mg/g liver (laying hens [1]; 0.03% of diet): 3.1 ± 0.10^b mg/g liver | Liver Cholesterol mg/liver (laying hens [1]; 0.03% of diet): 86.8 ± 2.9^a mg/liver | Liver Cholesterol mg/g liver (laying hens [1]; 0.06% of diet): 2.9 ± 0.04^b,c mg/g liver | Liver Cholesterol mg/liver (laying hens [1]; 0.06% of diet): 82.6 ± 1.9^a mg/liver | Plasma VLDL particle Diameter nm (plasma VLDL particles [2]; 0.03% of diet): 35.2 ± 0.1^a,b nm | Plasma VLDL particle Diameter nm (plasma VLDL particles [2]; 0.06% of diet): 35.3 ± 0.1^a,b nm | change of plasma total cholesterol concentration vs control (laying hens [3]): −36% | Plasma VLDL composition: EC (esterified cholesterol) (plasma VLDL particles [4]; 0.03% of diet): 0.06 ± 0.02^a,b % | Plasma VLDL composition: PC (phosphatidylcholine) (plasma VLDL particles [4]; 0.03% of diet): 12.15 ± 0.58^b % | Plasma VLDL composition: PE (phosphatidylethanolamine) (plasma VLDL particles [4]; 0.03% of diet): 3.96 ± 0.17^a % | Plasma VLDL composition: Protein (plasma VLDL particles [4]; 0.03% of diet): 17.99 ± 1.48^a % | Plasma VLDL composition: SM (sphingomyelin) (plasma VLDL particles [4]; 0.03% of diet): 1.77 ± 1.24^a % | Plasma VLDL composition: TG (triglyceride) (plasma VLDL particles [4]; 0.03% of diet): 61.23 ± 2.98^a % | Plasma VLDL composition: UC (unesterified cholesterol) (plasma VLDL particles [4]; 0.03% of diet): 2.84 ± 0.20^a % | Plasma VLDL composition: EC (esterified cholesterol) (plasma VLDL particles [4]; 0.06% of diet): 0.08 ± 0.04^a,b % | Plasma VLDL composition: PC (phosphatidylcholine) (plasma VLDL particles [4]; 0.06% of diet): 13.85 ± 0.61^a,b % | Plasma VLDL composition: PE (phosphatidylethanolamine) (plasma VLDL particles [4]; 0.06% of diet): 3.65 ± 0.51^a % | Plasma VLDL composition: Protein (plasma VLDL particles [4]; 0.06% of diet): 17.06 ± 0.84^a % | Plasma VLDL composition: SM (sphingomyelin) (plasma VLDL particles [4]; 0.06% of diet): 0.36 ± 0.23^a % | Plasma VLDL composition: TG (triglyceride) (plasma VLDL particles [4]; 0.06% of diet): 62.03 ± 1.53^a % | Plasma VLDL composition: UC (unesterified cholesterol) (plasma VLDL particles [4]; 0.06% of diet): 2.97 ± 0.13^a % | Yolk cholesterol content, mg cholesterol/g yolk (laying hens [5]; 0.03% of diet, Week 0): 10.8 ± 0.2^a mg cholesterol/g yolk | Yolk cholesterol content, mg cholesterol/yolk (laying hens [5]; 0.03% of diet, Week 0): 189.7 ± 6.1^a mg cholesterol/yolk | Yolk cholesterol content, mg cholesterol/g yolk (laying hens [5]; 0.03% of diet, Week 1): 11.2 ± 0.2^a,b mg cholesterol/g yolk | Yolk cholesterol content, mg cholesterol/yolk (laying hens [5]; 0.03% of diet, Week 1): 192.9 ± 5.3^a mg cholesterol/yolk | Yolk cholesterol content, mg cholesterol/g yolk (laying hens [5]; 0.03% of diet, Week 2): 10.3 ± 0.2^c,d mg cholesterol/g yolk | Yolk cholesterol content, mg cholesterol/g yolk (laying hens [5]; 0.03% of diet, Week 3): 10.0 ± 0.1^c,d mg cholesterol/g yolk | Yolk cholesterol content, mg cholesterol/yolk (laying hens [5]; 0.03% of diet, Week 3): 166.2 ± 2.7^b mg cholesterol/yolk | Yolk cholesterol content, mg cholesterol/g yolk (laying hens [5]; 0.03% of diet, Week 4): 10.3 ± 0.2^b,c mg cholesterol/g yolk | Yolk cholesterol content, mg cholesterol/g yolk (laying hens [5]; 0.03% of diet, Week 5): 10.1 ± 0.1^b mg cholesterol/g yolk | Yolk cholesterol content, mg cholesterol/yolk (laying hens [5]; 0.03% of diet, Week 5): 172.1 ± 2.9^b,c mg cholesterol/yolk | Yolk cholesterol content, mg cholesterol/g yolk (laying hens [5]; 0.06% of diet, Week 0): 11.0 ± 0.3^a mg cholesterol/g yolk | Yolk cholesterol content, mg cholesterol/yolk (laying hens [5]; 0.06% of diet, Week 0): 191.1 ± 7.9^a mg cholesterol/yolk | Yolk cholesterol content, mg cholesterol/g yolk (laying hens [5]; 0.06% of diet, Week 1): 10.7 ± 0.2^b mg cholesterol/g yolk | Yolk cholesterol content, mg cholesterol/yolk (laying hens [5]; 0.06% of diet, Week 1): 188.7 ± 9.1^a,b mg cholesterol/yolk | Yolk cholesterol content, mg cholesterol/g yolk (laying hens [5]; 0.06% of diet, Week 2): 10.0 ± 0.1^d mg cholesterol/g yolk | Yolk cholesterol content, mg cholesterol/yolk (laying hens [5]; 0.06% of diet, Week 2): 170.8 ± 3.0^b mg cholesterol/yolk | Yolk cholesterol content, mg cholesterol/g yolk (laying hens [5]; 0.06% of diet, Week 3): 9.8 ± 0.1^d mg cholesterol/g yolk | Yolk cholesterol content, mg cholesterol/yolk (laying hens [5]; 0.06% of diet, Week 3): 166.0 ± 4.6^b mg cholesterol/yolk | Yolk cholesterol content, mg cholesterol/g yolk (laying hens [5]; 0.06% of diet, Week 4): 9.9 ± 0.3^c mg cholesterol/g yolk | Yolk cholesterol content, mg cholesterol/yolk (laying hens [5]; 0.06% of diet, Week 4): 170.4 ± 7.0^b mg cholesterol/yolk | Yolk cholesterol content, mg cholesterol/g yolk (laying hens [5]; 0.06% of diet, Week 5): 9.3 mg cholesterol/g yolk and 9.3 ± 0.1^c mg cholesterol/g yolk | Yolk cholesterol content, mg cholesterol/yolk (laying hens [5]; 0.06% of diet, Week 5): 158.0 mg cholesterol/yolk and 158.0 ± 2.7^c,d mg cholesterol/yolk | yolk cholesterol reduction from control on a per yolk (egg) basis (laying hens [5]; [7]): 22% | yolk cholesterol reduction from control per g of yolk (mg/g basis) (laying hens [5]; [7]): 20% | Egg weight, g (laying hens [6]; [8]): 63.3 ± 1.4^a,b (141) g | Hen-day egg production, % (laying hens [6]; [8]): 80.6 ± 2.3^a,b (141) % | Egg weight, g (laying hens [6]; 0.03% of diet, Week 1): 63.8 ± 1.0^a g | Hen-day egg production, % (laying hens [6]; 0.03% of diet, Week 1): 80.0 ± 2.5^d % | Egg weight, g (laying hens [6]; 0.03% of diet, Week 2): 63.9 ± 0.9^a,b g | Hen-day egg production, % (laying hens [6]; 0.03% of diet, Week 2): 85.7 ± 1.5^a,b % | Egg weight, g (laying hens [6]; 0.03% of diet, Week 3): 62.5 ± 0.7^b,c g | Hen-day egg production, % (laying hens [6]; 0.03% of diet, Week 3): 80.0 ± 1.2^b % | Egg weight, g (laying hens [6]; 0.03% of diet, Week 4): 62.8 ± 0.7^b,c g | Hen-day egg production, % (laying hens [6]; 0.03% of diet, Week 4): 80.0 ± 1.2^b,c % | Egg weight, g (laying hens [6]; 0.03% of diet, Week 5): 62.9 ± 0.7^a,b g | Hen-day egg production, % (laying hens [6]; 0.03% of diet, Week 5): 80.0 ± 1.2^b,c % | Egg weight, g (laying hens [6]; [9]): 62.0 ± 1.9^a,b (144) g | Hen-day egg production, % (laying hens [6]; [9]): 82.3 ± 1.9^a,b (144) % | Egg weight, g (laying hens [6]; 0.06% of diet, Week 1): 63.8 ± 1.0^a g | Hen-day egg production, % (laying hens [6]; 0.06% of diet, Week 1): 85.7 ± 1.5^b,c % | Egg weight, g (laying hens [6]; 0.06% of diet, Week 2): 62.0 ± 1.0^b,c g | Hen-day egg production, % (laying hens [6]; 0.06% of diet, Week 2): 82.9 ± 1.0^b % | Egg weight, g (laying hens [6]; 0.06% of diet, Week 3): 61.0 ± 1.0^c g | Hen-day egg production, % (laying hens [6]; 0.06% of diet, Week 3): 77.1 ± 1.2^b % | Egg weight, g (laying hens [6]; 0.06% of diet, Week 4): 62.2 ± 1.0^c,d g | Hen-day egg production, % (laying hens [6]; 0.06% of diet, Week 4): 82.9 ± 1.0^b % | Egg weight, g (laying hens [6]; 0.06% of diet, Week 5): 60.5 ± 0.8^b g | Hen-day egg production, % (laying hens [6]; 0.06% of diet, Week 5): 88.6 ± 1.0^a %
